# Measured values published in article PMC10752971 (Frontiers in Pharmacology, 2023).
# Read-outs that look alike come from different tables or passages of the source.
# Legend:
# MYLA cells [1] = assay: RT-qPCR of OXTR, CALD1 and MYLK expression in MYLA cells; assay type: cell-based, human; details: for OXTR, CALD1, and MYLK expression at 48 h (RT-qPCR): 1 µM PGF2α + 1 µM antagonist vs 1 µM PGF2α; for Expression of OXTR, CALD1, and MYLK (RT-qPCR time series): 1 µM PGF2α + 1 µM antagonist, 1–48 h
# FP receptor [2] = target: T1, FP receptor (Homo sapiens, UniProt P43088); assay: [35S]-GTPγS immunoprecipitation assay of Gα-subunit coupling in MYLA cell membranes
# Procedure: Tissue preparation: MYLA cells were grown to 95%–100% confluency in a T175 flask, lifted, and pelleted via standard cell culture techniques. The harvested cells were homogenised in ice-cold lysis buffer (composition (mM): HEPES, 20; EDTA, 1; MgCl2, 2; KCl, 10; DTT, 2; pH, 7.4) using a Coleman handheld homogeniser. The homogenates were cleared (1,000×g, 10 min, 4°C) and membranes were collected by centrifugation (16,100×g, 90 min, 4°C). The membranes were resuspended in freezing buffer [composition (mM): HEPES, 10; MgCl2, 1; DTT, 1; pH, 7.4], where the protein concentration was adjusted to 1.5 mg/mL and rapidly frozen in liquid nitrogen. The membranes were stored at −80°C until required.
# Radioligand binding assay: 75 μg of membrane was added to 50 μL of assay buffer [composition (mM): HEPES, 10; MgCl2, 10; NaCl, 100; pH, 7.4] containing 1 nM [^35S]-GTPγS (1,250 Ci/mmol) and 10 μM GDP, with or without agonist and antagonists as required, and incubated at 30°C for 2 min. Non-specific binding (NSB) was determined by the inclusion of 10 μM unlabelled GTPγS. Incubation was terminated by the addition of 900 μL of ice-cold assay buffer, and the samples were transferred to ice. The cell membrane was recovered from the reaction mixture by centrifugation (16,100×g, 6 min, 4°C), and the supernatant was removed by aspiration. Membrane pellets were solubilised by the addition of 50 μL of ice-cold solubilisation buffer [composition (mM): Tris-HCl, 100; NaCl, 200; EDTA, 1; IGEPAL CA 630, 1.25% (v/v); 0.2% (w/v) SDS; pH, 7.4] and vortex mixing. […] The beads were washed and pelleted thrice with 500 μL of solubilisation buffer (less SDS) before re-suspension in Pico-Flour^TM scintillation cocktail (Perkin Elmer, Buckinghamshire, United Kingdom) where [^35S]-GTPγS was determined by standard liquid scintillation counting methods.
# Data analysis: Specific binding was determined by CPM values and expressed as a % increase over basal (unstimulated), and plotted using the GraphPad Prism 9 software. […]
# FP receptor [3] = target: T1, FP receptor; assay: Antagonist Ca2+ assay: FP antagonists on PGF2α-stimulated Ca2+ transients in MYLA cells; assay type: cell-based; parameters: endogenous in cells; host or cells: MYLA cells (conditionally immortalised human myometrial cells; hTERT + temperature-sensitive SV40 large T)
# Procedure: (§1) MYLA cells were grown to 95%–100% confluency in 3 cm^2 glass-bottom dishes (MatTek Corporation, MA, United States). The cells were serum starved for 24–48 h with 2% DMEM/F12 media and then incubated with 5 μM Calbryte^TM 520 AM (Stratech Scientific Ltd., Ely, United Kingdom) for 60 min at 37°C in a 95%/5% air/CO2-humidified environment, followed by 15 min at room temperature in the dark. […] The plates were then loaded on the stage of an Olympus IX81 inverted microscope and visualised with a 10x objective lens. Temperatures were maintained at 37°C. Calbryte^TM 520 AM was excited at Ex/Em: 490/525 nm. The cells were imaged for 3 min to allow any initial LED-induced Ca^2+ signalling to subside. […] Fluorescence was captured at a rate of one frame per second for 3 min, with agonist/antagonist injections occurring after a 30-s basal period.
# (§2) Data analysis: Videos were visualised, and data were analysed using ImageJ, the image analysis software. […] The frequency of Ca^2+ oscillations was calculated as the average number of oscillations over time in seconds (Hz). All data were visualised using the GraphPad Prism 9 software.
# (§3) Experiments were repeated on MYLA cells, where N represents the number of biological repeats.
# [4] = test system: transfected HEK-293 cell lines; parameters: method as in Martos et al., 2016; details: ref Martos et al., 2016; cited from earlier work
# [5] = test system: induced pulmonary fibrosis mouse models; parameters: method as in Beck et al., 2020; details: ref Beck et al., 2020; cited from earlier work
# MYLA cells [6] = assay: RNA-Seq time series of marker gene expression in MYLA cells; assay type: cell-based, human
# Procedure: The MYLA cells were seeded into a T75 flask and allowed to grow to 95%–100% confluency. […] The cells were harvested at T = 1, 3, 6, 9, 12, 24, and 48 h, pelleted (1,200 rpm, 5 min, 4°C), and snap frozen on dry ice before storage at −80°C.
# RNA was extracted from pelleted cells using the GenElute^TM Total RNA Purification Kit (Sigma Aldrich, Poole, United Kingdom) according to the manufacturer’s instructions. RNA concentration and purity were determined using a NanoDrop 1000 Spectrophotometer (Thermo Fisher Scientific, Loughborough, United Kingdom). All RNA samples were stored at −80°C until use.
# RNA quality was verified using a Bioanalyzer according to the manufacturer’s instructions (Eukaryote Total RNA Nano, Agilent). Illumina TruSeq RNA libraries were prepared and sequenced using a NextSeq 500 with a high-output 75 bp cycle cartridge (Illumina, Cambridge, United Kingdom) by the University of Warwick Genomic Facility.
# bcl2fastq v2.20.0.422 was used for demultiplexing each sample. FastQC v0.11.9 was used to quality control check the demultiplexed FastQC files, and MultiQC v1.9 consolidated the QC reports. Reads were aligned to the human reference genome build GRCh38 release 86 using STAR version 2.7.9a. The number of reads mapped to each genomic feature was calculated with featureCounts v2.0.1. The counts were imported into R Studio and analysed with the DESeq2 package.
# Data analysis: TPM data were processed and analysed using R Studio and then plotted using the GraphPad 9 software.
# The experiments were technical triplicates of biological triplicate samples taken from seven time points. The data in Figures 8–10 were analysed by two-way ANOVA and post hoc Dunnett’s multiple comparison test comparing treatments to the ethanol vehicle.
# FP receptor [7] = target: T1, FP receptor; details: MYLA cells
# Procedure: as §1, §2, §3
# [8] = 300 pM–10 µM antagonist in the presence of 1 µM PGF2α, N = 3, read-out: IC50, effect on AUC
# [9] = 300 pM–10 µM antagonist in the presence of 1 µM PGF2α, N = 3, read-out: IC50, effect on Fmax
# [10] = 300 pM–10 µM antagonist in the presence of 1 µM PGF2α, N = 3, read-out: IC50, effect on frequency of Ca2+ oscillations
# [11] = four-parameter fit, bottom constrained to 0
# [12] = normalised to averaged ionomycin Fmax
# T1 sequence (P43088 whole entry): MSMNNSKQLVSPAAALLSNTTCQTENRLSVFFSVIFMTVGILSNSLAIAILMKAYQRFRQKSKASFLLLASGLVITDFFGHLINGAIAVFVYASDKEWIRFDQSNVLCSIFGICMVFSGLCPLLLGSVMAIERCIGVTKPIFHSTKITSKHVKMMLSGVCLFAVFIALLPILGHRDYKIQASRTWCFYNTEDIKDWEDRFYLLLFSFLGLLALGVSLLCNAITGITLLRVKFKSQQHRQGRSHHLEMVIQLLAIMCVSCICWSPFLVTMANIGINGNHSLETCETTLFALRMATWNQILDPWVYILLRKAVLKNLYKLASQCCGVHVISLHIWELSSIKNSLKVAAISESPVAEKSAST
SMILES,IC50 (FP receptor [3]; [8]),IC50 (FP receptor [3]; [9]),IC50 (FP receptor [3]; [10]),"HillSlope ± SD, effect on AUC (FP receptor [3]; in the presence of 1 µM PGF2α)","HillSlope ± SD, effect on Fmax (FP receptor [3]; in the presence of 1 µM PGF2α)","HillSlope ± SD, effect on frequency (FP receptor [3]; in the presence of 1 µM PGF2α)",further results
"Cc1c(-c2ccccc2)nc2ccc(Br)cc2c1C(=O)NCC(CCC(=O)O)c1ccccc1Cl (stereo not drawn) [Compound 39/40, 5-(6-bromo-3-methyl-2-phenylquinoline-4-carboxamido)-4-(2-chlorophenyl) pentanoic acid]",90 nM,284 nM,154 nM,−0.98 ± 0.27,−0.54 ± 1.63,−2.00 ± 0.56,"OXTR, CALD1, and MYLK expression at 48 h (RT-qPCR) (MYLA cells [1]): significant decrease; Expression of OXTR, CALD1, and MYLK (RT-qPCR time series) (MYLA cells [1]): reduced; PGF2α-stimulated coupling to Gαq/11 (FP receptor [2]; 1 µM compound 39/40 + 1 µM PGF2α, 2 min): reversed"
"CC(C)Cn1ncc2cc(Cl)cc(Cn3nc(N)c4cc(C(=O)O)ccc43)c21 [Compound 68, 3-amino-1-((5-chloro-1-isobutyl-1H-indazol-7-yl)methyl)-1H-indazole-5-carboxylic acid]",175 nM,194 nM,978 nM,−0.44 ± 0.19,−0.47 ± 0.19,−0.49 ± 0.17,"Potency in FLIPR functional assays [4]: potent; IC50 (FP receptor [3]; in the presence of 1 µM PGF2α, N = 3, read-out: pIC50 ± SD, effect on AUC (converted)): 89.1 nM"
Cc1c(N2CCCC2)nc2ccc(Br)cc2c1C(=O)NC[C@H](CCC(=O)O)c1ccccc1Cl [BAY-6672],,,,,,,Effects in induced pulmonary fibrosis mouse models [5]: anti-inflammatory and antifibrotic effects
"CCCCC[C@H](O)/C=C/[C@@H]1[C@@H](C/C=C\CCCC(=O)O)[C@@H](O)C[C@H]1O [PGF2α, prostaglandin F2α]",,,,,,,"Expression of key genes involved in labour such as OXTR (also IL6, IL11) (MYLA cells [6]; 1 µM PGF2α vs vehicle, 1–48 h): upregulated; Expression of smooth muscle marker genes (ACTA2, CALD1, CNN1, COL4A1, COL4A2, MYLK, MYOCD, TAGLN, TGFB2, TGFB3) (MYLA cells [6]; 1 µM PGF2α, up to 48 h): increased expression; Effect on Fmax, AUC and frequency of intracellular Ca2+ oscillations compared to basal (FP receptor [7]; 300 pM to 10 µM PGF2α): concentration-dependent increase; HillSlope ± SEM, AUC (FP receptor [7]; [11]): 1.06 ± 0.45; HillSlope ± SEM, Fmax (FP receptor [7]; [11]): 0.91 ± 0.28; HillSlope ± SEM, Frequency (FP receptor [7]; [11]): 0.88 ± 0.33; Emax ± SEM, Frequency (FP receptor [7]; frequency of Ca2+ oscillations): 0.01 ± 0.01; Emax ± SEM, AUC (FP receptor [7]; [12]): 1.50 ± 0.14; Emax ± SEM, Fmax (FP receptor [7]; [12]): 0.14 ± 0.01; [35S]-GTPγS binding to Gαq/11 (FP receptor [2]; 1 µM PGF2α vs basal, 2 min): significantly increased; Gαs and Gαi coupling (FP receptor [2]; stimulation with PGF2α): no effect"
"O=C(N[C@H](c1ccc(F)cc1)[C@H]1CCS(=O)(=O)C1)[C@@H]1CCN1S(=O)(=O)c1ccc(-c2cccnc2)cc1 [Compound N582707, (S)-N-((S)-((R)-1,1-dioxidotetrahydrothiophen-3-yl)(4-fluorophenyl)methyl)-1-((4-(pyridin-3-yl)phenyl)sulfonyl)azetidine-2-carboxamide]",50.4 nM,21.3 nM,22.1 nM,,−0.49 ± 0.20,−0.55 ± 0.17,"Expression of fibroblast marker genes (DCN, FBLN1, LOXL1, PDGFRA) (MYLA cells [6]; 1 µM PGF2α + 1 µM FP antagonist, up to 48 h): increased the expression; OXTR, CALD1, and MYLK expression at 48 h (RT-qPCR) (MYLA cells [1]): significant decrease; Expression of OXTR, CALD1, and MYLK (RT-qPCR time series) (MYLA cells [1]): reduced; IC50 (FP receptor [3]; in the presence of 1 µM PGF2α, N = 3, read-out: pIC50 ± SD, effect on frequency of Ca2+ oscillations (converted)): 21.9 nM"
"O=C(N[C@@H](CCO)c1ccc(F)cc1)[C@@H]1SCCN1S(=O)(=O)c1ccc(-c2ccccc2)cc1 [OBE002, [(S)-3-(biphenyl-4-sulfonyl)-thiazolidine-2-carboxylic acid [(S)-1-(4-fluorophenyl)-3-hydroxy-propyl]-amide]]",180 nM,78.3 nM,1980 nM,−0.41 ± 0.17,−0.38 ± 0.15,−0.36 ± 0.19,"pIC50 ± SD, effect on Fmax (FP receptor [3]; in the presence of 1 µM PGF2α, N = 3): 7.11 ± 0.68"
"Cc1c(N2CCCC2)nc2ccc(Br)cc2c1C(=O)NCC(CCC(=O)O)c1ccccc1Cl (stereo not drawn) [Compound 46/47, 5-(6-bromo-3-methyl-2-(pyrrolidin-1-yl)quinoline-4-carboxamido)-4-(2-chlorophenyl)-pentanoic acid]",,,,−1.37 ± 0.68,−1.02 ± 0.40,−0.69 ± 0.30,
